This passage reports IC50 results from US9708311B2, “Benzimidazole derivatives as EP4 antagonists” (BAYER PHARMA AKTIENGESELLSCHAFT, priority 2012, dated 2017).

The target in the experiment is human EP4 receptor (Homo sapiens (Human), UniProt P35408). Put plainly: Test for antagonism of the human EP4 receptor signal (cAMP HTRF). The experiment is classed as cell-based. Conditions: cells expressing hEP4, PGE2 at EC80 (0.4 nM), cAMP TR-FRET; read-out: Antagonism hEP4 IC50. The procedure, abridged: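 Antagonism of PGE2-stimulated cAMP formation in hEP4-R cells with IBMX present. After lysis, cAMP measured by competitive TR-FRET (Eu cryptate anti-cAMP antibody vs cAMP-d2), 20 min at room temperature. Read-out is the 665/620 nm emission ratio; antagonism appears as restored FRET signal.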
Sequence of human EP4 receptor (P35408 whole entry): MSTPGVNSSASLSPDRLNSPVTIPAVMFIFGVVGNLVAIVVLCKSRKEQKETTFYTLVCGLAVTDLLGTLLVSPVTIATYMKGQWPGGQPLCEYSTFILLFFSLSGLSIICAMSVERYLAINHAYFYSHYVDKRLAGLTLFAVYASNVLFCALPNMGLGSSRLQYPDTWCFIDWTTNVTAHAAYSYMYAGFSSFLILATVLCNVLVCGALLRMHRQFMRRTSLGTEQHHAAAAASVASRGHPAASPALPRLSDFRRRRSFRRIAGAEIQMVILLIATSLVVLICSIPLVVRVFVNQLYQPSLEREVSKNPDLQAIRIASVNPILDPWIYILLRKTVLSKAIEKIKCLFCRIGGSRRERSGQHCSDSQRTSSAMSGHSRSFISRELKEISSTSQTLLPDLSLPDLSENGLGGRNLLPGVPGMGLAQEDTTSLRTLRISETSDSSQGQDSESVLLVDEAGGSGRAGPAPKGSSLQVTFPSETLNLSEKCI
With `CCn1c2ccccc2c2cc(-c3nc4cc(C(=O)O)ccc4n3CC(O)C3CC3)ccc21` (stereo not shown) [Example 137, 1-(2-Cyclopropyl-2-hydroxyethyl)-2-(9-ethyl-9H-carbazol-3-yl)-1H-benzimidazole-5-carboxylic acid], the IC50 (as a rule, the concentration that inhibits the measured activity by half) was found to be 18.6 nM. In the case of `CCn1c2ccccc2c2cc(-c3nc4cc(C(=O)O)ccc4n3CC3CCCO3)ccc21` (stereo not shown) [Example 133, 2-(9-Ethyl-9H-carbazol-3-yl)-1-(tetrahydrofuran-2-ylmethyl)-1H-benzimidazole-5-carboxylic acid], the IC50 stood at 7 nM. Regarding `CCn1c2ccccc2c2cc(-c3nc4cc(C(=O)O)ccc4n3CC3CC3(C)C)ccc21` (stereo not shown) [Example 121, 1-[(2,2-Dimethylcyclopropyl)methyl]-2-(9-ethyl-9H-carbazol-3-yl)-1H-benzimidazole-5-carboxylic acid], the IC50 was found to be 100 nM. As for `CCn1c2ccccc2c2cc(-c3nc4cc(C(=O)N(C)S(C)(=O)=O)ccc4n3CCOC)ccc21` [Example 84, 2-(9-Ethyl-9H-carbazol-3-yl)-1-(2-methoxyethyl)-N-methyl-N-(methylsulphonyl)-1H-benzimidazole-5-carboxamide], the figure is 143 nM; as for `CCn1c2ccccc2c2cc(-c3nc4cc(-c5nnn[nH]5)ccc4n3CCOC)ccc21` [Example 45, 9-Ethyl-3-[1-(2-methoxyethyl)-5-(1H-tetrazol-5-yl)-1H-benzimidazol-2-yl]-9H-carbazole], 13.4 nM. The result for `CCn1c2ccccc2c2cc(-c3nc4cc(C(=O)NS(=O)(=O)c5ccc(OC)cc5)ccc4n3CCOC)ccc21` [Example 19, 2-(9-Ethyl-9H-carbazol-3-yl)-1-(2-methoxyethyl)-N-[(4-methoxyphenyl)sulphonyl]-1H-benzimidazole-5-carboxamide] reads 32.2 nM. The result for `CCn1c2ccccc2c2cc(-c3nc4cc(C(=O)OC)ccc4n3CCOC)ccc21` [Example 3, Methyl 2-(9-ethyl-9H-carbazol-3-yl)-1-(2-methoxyethyl)-1H-benzimidazole-5-carboxylate] reads 175 nM. Take `CCn1c2ccccc2c2cc(-c3nc4cc(C(=O)NS(=O)(=O)Cc5ccccc5)ccc4n3CCOC)ccc21` [Example 55, N-(Benzylsulphonyl)-2-(9-ethyl-9H-carbazol-3-yl)-1-(2-methoxyethyl)-1H-benzimidazole-5-carboxamide]: the IC50 came out at 117 nM. The result for `CCn1c2ccccc2c2cc(-c3nc4cc(C(=O)NS(=O)(=O)CCc5ccccc5Cl)ccc4n3CCOC)ccc21` [Example 61, N-{[2-(2-Chlorophenyl)ethyl]sulphonyl}-2-(9-ethyl-9H-carbazol-3-yl)-1-(2-methoxyethyl)-1H-benzimidazole-5-carboxamide] reads 167 nM. As for `CCn1c2ccc(OC)cc2c2cc(-c3nc4cc(C(=O)O)ccc4n3CCOC)ccc21` [Example 32, 2-(9-Ethyl-6-methoxy-9H-carbazol-3-yl)-1-(2-methoxyethyl)-1H-benzimidazole-5-carboxylic acid], the figure is 27.4 nM; as for `CCn1c2ccccc2c2cc(-c3nc4cc(C(=O)O)ccc4n3C[C@@H](O)COC)ccc21` [Example 134, 2-(9-Ethyl-9H-carbazol-3-yl)-1-[(2R)-2-hydroxy-3-methoxypropyl]-1H-benzimidazole-5-carboxylic acid], 136 nM; as for `CCn1c2ccccc2c2cc(-c3nc4cc(C(=O)O)c(F)cc4n3CC3CC3)ccc21` [Example 112, 1-(Cyclopropylmethyl)-2-(9-ethyl-9H-carbazol-3-yl)-6-fluoro-1H-benzimidazole-5-carboxylic acid], 34.6 nM.

Turning to `CCn1c(-c2ccc3c(c2)c2ccccc2n3CC)nc2cc(C(=O)OC)ccc21` [Example 95, Methyl 1-ethyl-2-(9-ethyl-9H-carbazol-3-yl)-1H-benzimidazole-5-carboxylate], the IC50 is 1030 nM. With `CCn1c2ccccc2c2cc(-c3nc4cc(C(=O)NS(=O)(=O)CCOC)ccc4n3CCOC)ccc21` [Example 59, 2-(9-Ethyl-9H-carbazol-3-yl)-1-(2-methoxyethyl)-N-[(2-methoxyethyl)sulphonyl]-1H-benzimidazole-5-carboxamide], the IC50 is 16.9 nM.

Take `CCn1c2ccccc2c2cc(-c3nc4cc(C(=O)NS(=O)(=O)Cc5ncccc5C)ccc4n3CCOC)ccc21` [Example 68, 2-(9-Ethyl-9H-carbazol-3-yl)-1-(2-methoxyethyl)-N-{[(3-methylpyridin-2-yl)methyl]-sulphonyl}-1H-benzimidazole-5-carboxamide]: the IC50 is 36.3 nM. As for `CCn1c2ccccc2c2cc(-c3nc4cc(C(=O)NC)ccc4n3CCN(C)C)ccc21` [Example 73, 1-[2-(Dimethylamino)ethyl]-2-(9-ethyl-9H-carbazol-3-yl)-N-methyl-1H-benzimidazole-5-carboxamide], the figure is 382 nM. As for `CCn1c2ccccc2c2cc(-c3nc4cc(C(=O)NS(C)(=O)=O)ccc4n3CCOC)ccc21` [Example 15, 2-(9-Ethyl-9H-carbazol-3-yl)-1-(2-methoxyethyl)-N-(methylsulphonyl)-1H-benzimidazole-5-carboxamide], the figure is 23.8 nM.

As for `O=C(O)c1ccc2c(c1)nc(-c1ccc3c(c1)c1ccccc1n3CC1CCC1)n2CC1CC1` [Example 125, 2-[9-(Cyclobutylmethyl)-9H-carbazol-3-yl]-1-(cyclopropylmethyl)-1H-benzimidazole-5-carboxylic acid], the IC50 was determined as 257 nM. The result for `CCn1c2ccccc2c2cc(-c3nc4cc(C(=O)NS(=O)(=O)C(C)(C)C)ccc4n3CCOC)ccc21` [Example 39, N-(tert-Butylsulphonyl)-2-(9-ethyl-9H-carbazol-3-yl)-1-(2-methoxyethyl)-1H-benzimidazole-5-carboxamide] reads 768 nM; that for `CCn1c2ccccc2c2cc(-c3nc4cc(C(=O)NCCN5CCOCC5)ccc4n3CC3CC3)ccc21` [Example 79, 1-(Cyclopropylmethyl)-2-(9-ethyl-9H-carbazol-3-yl)-N-[2-(morpholin-4-yl)ethyl]-1H-benzimidazole-5-carboxamide], 106 nM; that for `CCOC(=O)c1ccc2c(c1)nc(-c1ccc3c(c1)c1ccccc1n3CC)n2CCN1CCCC1` [Example 37, Ethyl 2-(9-ethyl-9H-carbazol-3-yl)-1-[2-(pyrrolidin-1-yl)ethyl]-1H-benzimidazole-5-carboxylate], 3780 nM.

Regarding `CCn1c2ccccc2c2cc(-c3nc4cc(C(=O)NS(=O)(=O)CC)ccc4n3CCOC)ccc21` [Example 18, 2-(9-Ethyl-9H-carbazol-3-yl)-N-(ethylsulphonyl)-1-(2-methoxyethyl)-1H-benzimidazole-5-carboxamide], the IC50 was determined as 22.8 nM.

Regarding `CCOC(=O)c1ccc2c(c1)nc(-c1ccc3c(c1)c1ccccc1n3CC)n2CCCOC` [Example 99, Ethyl 2-(9-ethyl-9H-carbazol-3-yl)-1-(3-methoxypropyl)-1H-benzimidazole-5-carboxylate], the IC50 was 1710 nM. As for `COCCn1c(-c2ccc3c(c2)c2ccccc2n3CCOC)nc2cc(C(=O)O)ccc21` [Example 98, 1-(2-Methoxyethyl)-2-[9-(2-methoxyethyl)-9H-carbazol-3-yl]-1H-benzimidazole-5-carboxylic acid], the figure is 112 nM; as for `CCn1c2ccccc2c2cc(-c3nc4cc(C(=O)O)ccc4n3CCN3CCOCC3)ccc21` [Example 70, 2-(9-Ethyl-9H-carbazol-3-yl)-1-[2-(morpholin-4-yl)ethyl]-1H-benzimidazole-5-carboxylic acid], 2460 nM; as for `CCn1c2ccccc2c2cc(-c3nc4cc(S(=O)(=O)NC)ccc4n3C)ccc21` [Example 129, 2-(9-Ethyl-9H-carbazol-3-yl)-N,1-dimethyl-1H-benzimidazole-5-sulphonamide], 944 nM. The result for `CCCn1c2ccccc2c2cc(-c3nc4cc(C(=O)O)ccc4n3CCOC)ccc21` [Example 118, 1-(2-Methoxyethyl)-2-(9-propyl-9H-carbazol-3-yl)-1H-benzimidazole-5-carboxylic acid] reads 36.2 nM; that for `CCn1c2ccccc2c2cc(-c3nc4cc(C(=O)NS(=O)(=O)Cc5ccc(C(F)(F)F)cc5)ccc4n3CCOC)ccc21` [Example 62, 2-(9-Ethyl-9H-carbazol-3-yl)-1-(2-methoxyethyl)-N-{[4-(trifluoromethyl)benzyl]sulphonyl}-1H-benzimidazole-5-carboxamide], 186 nM.
